Several values for one entry are separate records, joined by “and”; a condition that tells them apart may be missing. Equal entries are not always repeated. Structures can show the parent of a compound that is named as a salt. Where two headings read alike, the source gives them in different places. Each block holds one molecule with its values, some of them ahead of it.
Experiments:
DNMT1 = DNMT1 (Homo sapiens, UniProt P26358); test: DNMT1 biochemical activity, breaklight assay and/or SPA assay
DNMT1, sequence (P26358 whole entry, looked up): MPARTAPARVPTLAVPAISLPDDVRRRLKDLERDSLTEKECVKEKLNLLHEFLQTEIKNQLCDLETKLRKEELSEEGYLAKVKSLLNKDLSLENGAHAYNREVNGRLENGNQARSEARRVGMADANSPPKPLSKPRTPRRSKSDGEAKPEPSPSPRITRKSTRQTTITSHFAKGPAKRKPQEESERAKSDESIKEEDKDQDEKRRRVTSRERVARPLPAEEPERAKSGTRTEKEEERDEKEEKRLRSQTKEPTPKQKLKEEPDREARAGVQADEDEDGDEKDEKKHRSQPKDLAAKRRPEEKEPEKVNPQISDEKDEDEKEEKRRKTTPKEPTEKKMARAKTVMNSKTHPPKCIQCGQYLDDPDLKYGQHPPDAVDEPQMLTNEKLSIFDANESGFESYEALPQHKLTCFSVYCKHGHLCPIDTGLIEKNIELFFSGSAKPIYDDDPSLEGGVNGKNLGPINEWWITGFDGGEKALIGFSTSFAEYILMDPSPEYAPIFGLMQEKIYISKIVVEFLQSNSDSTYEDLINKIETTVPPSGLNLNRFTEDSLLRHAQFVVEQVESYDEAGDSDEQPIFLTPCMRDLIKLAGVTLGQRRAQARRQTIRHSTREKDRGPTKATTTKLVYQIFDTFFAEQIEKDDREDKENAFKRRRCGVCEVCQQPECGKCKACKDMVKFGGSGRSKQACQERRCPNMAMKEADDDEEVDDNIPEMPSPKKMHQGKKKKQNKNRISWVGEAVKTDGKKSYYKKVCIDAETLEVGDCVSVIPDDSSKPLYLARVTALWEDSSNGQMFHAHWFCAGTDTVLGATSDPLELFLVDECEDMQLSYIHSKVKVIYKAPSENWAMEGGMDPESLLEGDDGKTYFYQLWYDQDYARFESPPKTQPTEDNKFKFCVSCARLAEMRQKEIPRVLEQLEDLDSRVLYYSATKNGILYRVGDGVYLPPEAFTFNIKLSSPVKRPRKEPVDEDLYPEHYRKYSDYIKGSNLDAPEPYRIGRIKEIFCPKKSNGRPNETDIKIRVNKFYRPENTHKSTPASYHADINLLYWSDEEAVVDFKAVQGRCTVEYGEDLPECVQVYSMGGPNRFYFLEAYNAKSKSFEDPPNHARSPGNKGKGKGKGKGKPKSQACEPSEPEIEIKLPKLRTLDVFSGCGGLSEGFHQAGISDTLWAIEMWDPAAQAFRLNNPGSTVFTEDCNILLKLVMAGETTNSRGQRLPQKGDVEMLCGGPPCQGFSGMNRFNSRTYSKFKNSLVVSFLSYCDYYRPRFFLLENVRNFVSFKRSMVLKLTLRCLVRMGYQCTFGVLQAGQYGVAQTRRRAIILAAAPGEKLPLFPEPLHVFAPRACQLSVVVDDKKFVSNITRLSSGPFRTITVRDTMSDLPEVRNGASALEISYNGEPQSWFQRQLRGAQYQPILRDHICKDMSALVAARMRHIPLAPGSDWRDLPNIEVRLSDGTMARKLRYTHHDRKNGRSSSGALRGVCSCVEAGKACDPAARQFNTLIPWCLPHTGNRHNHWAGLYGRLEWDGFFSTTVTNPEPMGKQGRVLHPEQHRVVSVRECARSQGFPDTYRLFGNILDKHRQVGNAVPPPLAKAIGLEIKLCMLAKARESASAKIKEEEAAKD

[1] = test system: erythroid progenitor cells (EPCs); test: Fetal hemoglobin (HbF) ELISA in day 7 erythroid progenitor cells; type: cell-based, human; conditions: Homo sapiens, Erythroid progenitor cell, read-out: EPC ELISA (pEC50 category) (converted);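 on EPC ELISA (pEC50 category): for fetal hemoglobin induction normalized to vehicle-treated cells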
Procedure, shortened: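 HbF induction was read by anti-HbF sandwich ELISA (HRP/TMB, OD450) on lysates and normalized to vehicle-treated cells. Cells were day 7 erythroid progenitors derived from human bone marrow CD34+ cells, seeded at 1,000/well with 3 U/mL rhEPO. Compound was given for 5 days at 37 °C at final concentrations […].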

[2] = binned activity in either the breaklight or the SPA assay
[3] = binned activity in either the breaklight or the SPA assay, read-out: DNMT1 BioChemical (pIC50 category) (converted)
[4] = breaklight assay and/or SPA assay, repeated experimental runs, read-out: average pIC50 against DNMT1 (converted)

Compound: CN(CCN)c1nc(SC(C(N)=O)c2ccccc2)c(C#N)c(C2CC2)c1C#N (stereo not shown) [Example 373, 2-((6-((2-Aminoethyl)(methyl)amino)-3,5-dicyano-4-cyclopropylpyridin-2-yl)thio)-2-phenylacetamide, Hydrochloride]
DNMT1 BioChemical (pIC50 category) (DNMT1; [2]): D (Category D: ≥6.5)
EC50 ([1]; HbF ELISA, day 7 EPCs, 5 days): 0.316 to 1 µM

Compound: CCc1c(C#N)c(SC(C(N)=O)c2ccccc2)nc(N(C)Cc2cc[nH]n2)c1C#N (stereo not shown) [Example 356, 2-((6-(((1H-Pyrazol-3-yl)methyl)(methyl)amino)-3,5-dicyano-4-ethylpyridin-2-yl)thio)-2-phenylacetamide]
DNMT1 BioChemical (pIC50 category) (DNMT1; [2]): D (Category D: ≥6.5)
EC50 ([1]; HbF ELISA, day 7 EPCs, 5 days): 0.316 to 1 µM

Compound: CCc1c(C#N)c(SC(C(N)=O)c2ccccc2)nc(N2CC[C@H](OP(=O)(O)O)C2)c1C#N (stereo partly drawn) [Example 415, (3S)-1-(6-((2-amino-2-oxo-1-phenylethyl)thio-3,5-dicyano-4-ethylpyridin-2-yl) Pyrrolidin-3-yldihydrogen phosphate]
IC50 (DNMT1; [3]): 1 to 31.6 µM
EC50 [1]: 1 to 31.6 µM

Compound: CCc1c(C#N)c(SCc2ccc(CN)cc2)nc(N2CCC(N3CCCC3)CC2)c1C#N [Example 68, 2-(4-(Aminomethyl)benzylthio)-4-ethyl-6-(4-(pyrrolidin-1-yl)piperidin-1-yl)pyridine-3,5-dicarbonitrile 2,2,2-trifluoroacetate]
IC50 (DNMT1; [3]): 0.316 to 1 µM
EC50 ([1]; HbF ELISA, day 7 EPCs, 5 days): > 31.6 µM

Compound: CCc1c(C#N)c(SC(C(N)=O)c2ccccc2)nc(N2CC(CO)C2)c1C#N (stereo not shown) [Example 262, 2-((3,5-Dicyano-4-ethyl-6-(3-(hydroxymethyl)azetidin-1-yl)pyridin-2-yl)thio)-2-phenylacetamide]
DNMT1 BioChemical (pIC50 category) (DNMT1; [2]): D (Category D: ≥6.5)
EC50 ([1]; HbF ELISA, day 7 EPCs, 5 days): 1 to 31.6 µM

Compound: CCc1c(C#N)c(SC(C(N)=O)c2ccccc2)nc(N2CCN(Cc3cc[nH]c3)CC2)c1C#N (stereo not shown) [Example 182, 2-((6-(4-((1H-Pyrrol-3-yl)methyl)piperazin-1-yl)-3,5-dicyano-4-ethylpyridin-2-yl)thio)-2-phenylacetamide]
IC50 (DNMT1; [3]): 0.316 to 1 µM
EC50 ([1]; HbF ELISA, day 7 EPCs, 5 days): 0.316 to 1 µM

Compound: CN1CCN(c2nc(SC(C(N)=O)c3ccccc3)c(C#N)c(C3CC3)c2C#N)CCC1=O (stereo not shown) [Example 109, 2-{[3,5-Dicyano-4-cyclopropyl-6-(4-methyl-5-oxo-1,4-diazepan-1-yl)pyridin-2-yl]sulfanyl}-2-phenylacetamide]
IC50 (DNMT1; [3]): 0.316 to 1 µM
IC50 (DNMT1; [4]): ≥ 1 µM
EC50 ([1]; HbF ELISA, day 7 EPCs, 5 days): < 0.316 µM

Compound: CCc1c(C#N)c(SC(C(N)=O)c2ccccc2)nc(N2CCN(Cc3cnoc3)CC2)c1C#N (stereo not shown) [Example 185]
IC50 (DNMT1; [3]): 0.316 to 1 µM
EC50 ([1]; HbF ELISA, day 7 EPCs, 5 days): 0.316 to 1 µM

Compound: CCc1c(C#N)c(SCc2ccc(CNC(=O)CCN)cc2)nc(N(C)C)c1C#N [Example 279, 3-Amino-N-(4-(((3,5-dicyano-6-(dimethylamino)-4-ethylpyridin-2-yl)thio)methyl)benzyl)propanamide]
IC50 (DNMT1; [3]): 0.316 to 1 µM
IC50 (DNMT1; [4]): ≥ 1 µM and 1 µM
EC50 ([1]; HbF ELISA, day 7 EPCs, 5 days): > 31.6 µM

Compound: CCc1c(C#N)c(SC(C(N)=O)c2ccccc2)nc(N2CCC3(CC2)COC(=O)N3)c1C#N (stereo not shown) [Example 241, 2-((3,5-Dicyano-4-ethyl-6-(2-oxo-3-oxa-1,8-diazaspiro[4.5]decan-8-yl)pyridin-2-yl)thio)-2-phenylacetamide]
IC50 (DNMT1; [3]): 0.316 to 1 µM
EC50 ([1]; HbF ELISA, day 7 EPCs, 5 days): 1 to 31.6 µM

Compound: CCc1c(C#N)c(SCc2ccc(CNC(=O)CNC)cc2)nc(N2CCCN(C)CC2)c1C#N [Example 358, N-(4-(((3,5-Dicyano-4-ethyl-6-(4-methyl-1,4-diazepan-1-yl)pyridin-2-yl)thio)methyl)benzyl)-2-(methylamino)acetamide]
DNMT1 BioChemical (pIC50 category) (DNMT1; [2]): D (Category D: ≥6.5)
EC50 ([1]; HbF ELISA, day 7 EPCs, 5 days): > 31.6 µM

Compound: CCc1c(C#N)c(SC(C(N)=O)c2cccnc2F)nc(N2CCCN(C)CC2)c1C#N (stereo not shown) [Example 225]
IC50 (DNMT1; [3]): 1 to 31.6 µM
EC50 ([1]; HbF ELISA, day 7 EPCs, 5 days): 0.316 to 1 µM

Compound: CCc1c(C#N)c(SC(C(N)=O)c2ccccc2)nc(N2CCC(NC(=O)[C@@H](C)N)CC2)c1C#N (stereo partly drawn) [Example 366, (2R)-2-Amino-N-(1-(6-((2-amino-2-oxo-1-phenylethyl)thio)-3,5-dicyano-4-ethylpyridin-2-yl)piperidin-4-yl)propanamide, Hydrochloride]
DNMT1 BioChemical (pIC50 category) (DNMT1; [2]): D (Category D: ≥6.5)
EC50 ([1]; HbF ELISA, day 7 EPCs, 5 days): < 0.316 µM

Compound: CCc1c(C#N)c(S[C@H](C(N)=O)c2ccccc2)nc(N2CC[C@@H](N)[C@@H](F)C2)c1C#N [Example 531, (S)-2-((6-((3S,4R)-4-amino-3-fluoropiperidin-1-yl)-3,5-dicyano-4-ethylpyridin-2-yl)thio)-2-phenylacetamide • (0.67)2,2,2-trifluoroacetate • (0.33)methanesulfonate]
IC50 (DNMT1; [3]): 1 to 31.6 µM
IC50 (DNMT1; [4]): ≥ 1 µM and 1.58 µM
EC50 ([1]; HbF ELISA, day 7 EPCs, 5 days): < 0.316 µM

Compound: CCc1c(C#N)c(SC(C(N)=O)c2cc(F)ncc2F)nc(N2CCCN(C)CC2)c1C#N (stereo not shown) [Example 249, 2-((3,5-Dicyano-4-ethyl-6-(4-methyl-1,4-diazepan-1-yl)pyridin-2-yl)thio)-2-(2,5-difluoropyridin-4-yl)acetamide]
IC50 (DNMT1; [3]): 1 to 31.6 µM
EC50 ([1]; HbF ELISA, day 7 EPCs, 5 days): > 31.6 µM

Compound: CCc1c(C#N)c(SCCN(C)C)nc(SC(C(N)=O)c2ccccc2)c1C#N (stereo not shown) [Example 218, 2-((3,5-Dicyano-6-((2-(dimethylamino)ethyl)thio)-4-ethylpyridin-2-yl)thio)-2-phenylacetamide]
IC50 (DNMT1; [3]): 0.316 to 1 µM
EC50 ([1]; HbF ELISA, day 7 EPCs, 5 days): < 0.316 µM

Second part, the molecule after the results:

DNMT1 BioChemical (pIC50 category) (DNMT1; [2]): D (Category D: ≥6.5)
EC50 ([1]; HbF ELISA, day 7 EPCs, 5 days): 1 to 31.6 µM
Compound: CCc1c(C#N)c(SC(C(N)=O)c2cccc(OCCN(C)C)c2)nc(N(C)C)c1C#N (stereo not shown) [Example 407, 2-(3,5-dicyano-6-(dimethylamino)-4-ethylpyridin-2-ylthio)-2-(3-(2-(dimethylamino)ethoxy)phenyl)acetamide]

DNMT1 BioChemical (pIC50 category) (DNMT1; [2]): D (Category D: ≥6.5)
average pIC50 against DNMT1 (DNMT1; breaklight assay and/or SPA assay, repeated experimental runs): > 6.5
IC50 (DNMT1; [4]): 0.158 µM
EC50 ([1]; HbF ELISA, day 7 EPCs, 5 days): < 0.316 µM
Compound: CCc1c(C#N)c(SC(C(N)=O)c2ccccc2)nc(N2CCO[C@H](CNC(=O)CN)C2)c1C#N (stereo partly drawn) [Example 592, 2-amino-N-(((2R)-4-(6-((2-amino-2-oxo-1-phenylethyl)thio)-3,5-dicyano-4-ethylpyridin-2-yl)morpholin-2-yl)methyl)acetamide]

DNMT1 BioChemical (pIC50 category) (DNMT1; [2]): D (Category D: ≥6.5)
EC50 ([1]; HbF ELISA, day 7 EPCs, 5 days): 0.316 to 1 µM
Compound: CCc1c(C#N)c(SC(C(N)=O)c2ccccc2)nc(N(C)CC(=O)NO)c1C#N (stereo not shown) [Example 679, 2-((6-((2-amino-2-oxo-1-phenylethyl)thio)-3,5-dicyano-4-ethylpyridin-2-yl)(methyl)amino)-N-hydroxyacetamide]

DNMT1 BioChemical (pIC50 category) (DNMT1; [2]): D (Category D: ≥6.5)
EC50 ([1]; HbF ELISA, day 7 EPCs, 5 days): < 0.316 µM
Compound: CCc1c(C#N)c(SC(C(N)=O)c2ccccc2)nc(N2CCC(NC3CCC3)CC2)c1C#N (stereo not shown) [Example 448, 2-((3,5-dicyano-6-(4-(cyclobutylamino)piperidin-1-yl)-4-ethylpyridin-2-yl)thio)-2-phenylacetamide]

IC50 (DNMT1; [3]): < 0.316 µM
EC50 ([1]; HbF ELISA, day 7 EPCs, 5 days): < 0.316 µM
Compound: CCc1c(C#N)c(SC(C(N)=O)c2ccccc2)nc(N(C)CCNC(=O)C(C)(C)N)c1C#N (stereo not shown) [Example 627, 2-amino-N-(2-((6-((2-amino-2-oxo-1-phenylethyl)thio)-3,5-dicyano-4-ethylpyridin-2-yl)(methyl)amino)ethyl)-2-methylpropanamide]

DNMT1 BioChemical (pIC50 category) (DNMT1; [2]): D (Category D: ≥6.5)
EC50 ([1]; HbF ELISA, day 7 EPCs, 5 days): < 0.316 µM
Compound: CCc1c(C#N)c(SC(C(N)=O)c2ccccc2)nc(N2CCC[C@@H](CNCC(C)(C)C)C2)c1C#N (stereo partly drawn) [Example 568, 2-((3,5-dicyano-4-ethyl-6-((S)-3-((neopentylamino)methyl)piperidin-1-yl)pyridin-2-yl)thio)-2-phenylacetamide]

DNMT1 BioChemical (pIC50 category) (DNMT1; [2]): D (Category D: ≥6.5)
EC50 ([1]; HbF ELISA, day 7 EPCs, 5 days): < 0.316 µM
Compound: CCc1c(C#N)c(SC(C(N)=O)c2ccccc2)nc(N2CCC(CN3CCCC3)CC2)c1C#N (stereo not shown) [Example 445, 2-((3,5-dicyano-4-ethyl-6-(4-(pyrrolidin-1-ylmethyl)piperidin-1-yl)pyridin-2-yl)thio)-2-phenylacetamide]

DNMT1 BioChemical (pIC50 category) (DNMT1; [2]): D (Category D: ≥6.5)
EC50 ([1]; HbF ELISA, day 7 EPCs, 5 days): 0.316 to 1 µM
Compound: CCc1c(C#N)c(SCc2ccc(N(C)S(C)(=O)=O)cc2)nc(N2CCOC(CNC)C2)c1C#N (stereo not shown) [Example 596, N-(4-(((3,5-dicyano-4-ethyl-6-(2-((methylamino)methyl)morpholino)pyridin-2-yl)thio)methyl)phenyl)-N-methylmethanesulfonamide]

DNMT1 BioChemical (pIC50 category) (DNMT1; [2]): D (Category D: ≥6.5)
EC50 ([1]; HbF ELISA, day 7 EPCs, 5 days): 1 to 31.6 µM
Compound: CCc1c(C#N)c(S[C@@H](C(N)=O)c2ccccc2)nc(N2CCO[C@H](CNC(=O)CO)C2)c1C#N [Example 599, N-(((R)-4-(6-(((R)-2-amino-2-oxo-1-phenylethyl)thio)-3,5-dicyano-4-ethylpyridin-2-yl)morpholin-2-yl)methyl)-2-hydroxyacetamide]

DNMT1 BioChemical (pIC50 category) (DNMT1; [2]): D (Category D: ≥6.5)
EC50 ([1]; HbF ELISA, day 7 EPCs, 5 days): < 0.316 µM
Compound: CCc1c(C#N)c(SC(C(N)=O)c2ccccc2)nc(N(C)CC(=O)N2CCO[C@@H](CO)C2)c1C#N (stereo partly drawn) [Example 662, 2-((3,5-dicyano-4-ethyl-6-((2-((R)-2-(hydroxymethyl)morpholino)-2-oxoethyl)(methyl)amino)pyridin-2-yl)thio)-2-phenylacetamide]

IC50 (DNMT1; [3]): 0.316 to 1 µM
EC50 ([1]; HbF ELISA, day 7 EPCs, 5 days): 1 to 31.6 µM
Compound: CCc1c(C#N)c(SCc2ccc(CNC(=O)CO)cc2)nc(N2CCC(O)C2)c1C#N (stereo not shown) [Example 367]

DNMT1 BioChemical (pIC50 category) (DNMT1; [2]): D (Category D: ≥6.5)
EC50 ([1]; HbF ELISA, day 7 EPCs, 5 days): 1 to 31.6 µM
Compound: CCc1c(C#N)c(SCc2ccc(N(C)S(C)(=O)=O)cc2)nc(N2CCC(NC(=O)CN)CC2)c1C#N [Example 590, 2-amino-N-(1-(3,5-dicyano-4-ethyl-6-((4-(N-methylmethylsulfonamido)benzyl)thio)pyridin-2-yl)piperidin-4-yl)acetamide]

Source: patent US10975056B2 (GlaxoSmithKline Intellectual Property Development Limited, priority 2016, dated 2021)
